Assay results published in patent publication US10233191B2, “Fused piperidine amides as modulators of ion channels” (Vertex Pharmaceuticals Incorporated, priority 2013, dated 2019).

target: T1, NaV 1.7 (Homo sapiens, UniProt Q15858); test: E-VIPR optical membrane potential assay with electrical stimulation; type: cell-based; settings: active against one or more sodium channels; assay/subtype not specified in Table 4; read-out: IC50 Binned Activity Data
T1 construct: expressed in transfected cells; host or cells: HEK cells
Procedure, shortened: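 HEK cells expressing human NaV1.7, loaded with CC2-DMPE/DiSBAC6(3) FRET dyes, then exposed to compounds for 20-35 min at room temperature (0.625% DMSO). Electrical stimulation applied for 9 s with 400 Hz scanning. Read-out is the background-subtracted 460/580 nm emission ratio, normalized.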

T1 sequence (Q15858 whole entry): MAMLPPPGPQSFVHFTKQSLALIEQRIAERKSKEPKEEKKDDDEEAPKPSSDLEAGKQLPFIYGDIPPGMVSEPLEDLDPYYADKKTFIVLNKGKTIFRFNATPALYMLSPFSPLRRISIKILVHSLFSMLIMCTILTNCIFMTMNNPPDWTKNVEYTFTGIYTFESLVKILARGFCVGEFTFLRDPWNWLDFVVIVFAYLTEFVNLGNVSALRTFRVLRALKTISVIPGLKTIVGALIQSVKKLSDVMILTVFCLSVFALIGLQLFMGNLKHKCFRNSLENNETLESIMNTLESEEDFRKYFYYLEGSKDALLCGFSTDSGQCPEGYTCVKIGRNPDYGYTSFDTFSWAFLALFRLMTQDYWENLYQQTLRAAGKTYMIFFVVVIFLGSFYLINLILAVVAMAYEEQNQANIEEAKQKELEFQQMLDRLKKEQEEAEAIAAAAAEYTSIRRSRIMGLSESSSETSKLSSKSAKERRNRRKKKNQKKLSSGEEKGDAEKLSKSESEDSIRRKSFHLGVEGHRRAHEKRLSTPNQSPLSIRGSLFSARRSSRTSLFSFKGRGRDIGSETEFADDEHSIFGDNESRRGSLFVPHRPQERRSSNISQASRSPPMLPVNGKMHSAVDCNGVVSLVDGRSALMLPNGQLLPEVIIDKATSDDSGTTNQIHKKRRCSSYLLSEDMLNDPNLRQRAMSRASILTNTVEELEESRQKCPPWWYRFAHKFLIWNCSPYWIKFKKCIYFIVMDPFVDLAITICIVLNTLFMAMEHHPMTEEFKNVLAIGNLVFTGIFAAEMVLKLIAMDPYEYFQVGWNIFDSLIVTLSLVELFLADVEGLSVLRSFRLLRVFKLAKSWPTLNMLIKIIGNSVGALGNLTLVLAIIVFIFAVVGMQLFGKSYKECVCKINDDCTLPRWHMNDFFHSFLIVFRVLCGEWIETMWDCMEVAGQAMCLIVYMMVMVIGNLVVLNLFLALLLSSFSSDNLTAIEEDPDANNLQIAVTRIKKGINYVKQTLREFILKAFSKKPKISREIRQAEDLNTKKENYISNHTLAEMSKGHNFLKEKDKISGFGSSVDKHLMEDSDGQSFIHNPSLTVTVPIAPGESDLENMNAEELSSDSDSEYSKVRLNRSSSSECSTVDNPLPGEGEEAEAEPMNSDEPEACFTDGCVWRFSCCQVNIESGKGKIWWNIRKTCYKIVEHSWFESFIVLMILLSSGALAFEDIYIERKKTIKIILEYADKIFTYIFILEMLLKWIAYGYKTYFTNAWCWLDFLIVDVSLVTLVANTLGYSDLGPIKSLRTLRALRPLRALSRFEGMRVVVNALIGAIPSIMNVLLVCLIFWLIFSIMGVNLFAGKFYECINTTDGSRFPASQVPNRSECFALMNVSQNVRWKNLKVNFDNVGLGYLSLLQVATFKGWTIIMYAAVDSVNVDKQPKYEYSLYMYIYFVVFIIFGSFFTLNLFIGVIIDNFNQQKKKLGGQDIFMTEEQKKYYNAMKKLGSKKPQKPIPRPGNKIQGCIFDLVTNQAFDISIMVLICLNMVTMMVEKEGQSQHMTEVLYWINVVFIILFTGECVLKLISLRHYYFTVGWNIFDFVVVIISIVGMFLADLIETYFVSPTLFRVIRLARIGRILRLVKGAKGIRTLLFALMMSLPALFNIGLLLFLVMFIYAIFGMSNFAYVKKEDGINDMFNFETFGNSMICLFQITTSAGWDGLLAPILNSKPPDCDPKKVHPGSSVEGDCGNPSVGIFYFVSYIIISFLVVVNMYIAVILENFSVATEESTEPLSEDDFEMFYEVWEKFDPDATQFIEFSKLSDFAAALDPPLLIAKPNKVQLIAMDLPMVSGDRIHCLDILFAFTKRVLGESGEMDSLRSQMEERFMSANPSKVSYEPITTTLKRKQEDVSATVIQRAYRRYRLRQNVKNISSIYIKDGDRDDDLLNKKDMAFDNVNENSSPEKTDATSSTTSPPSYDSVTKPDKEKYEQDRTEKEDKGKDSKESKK

| SMILES | IC50 |
| --- | --- |
| O=C(c1ccc(OCCOC(F)(F)F)c(Cl)c1)N1CC[C@]2(c3nccs3)OCOC2C1 (stereo partly shown) [Compound 140] | ≤ 2000 nM |
| Cc1cc(C(=O)N2CC[C@]3(c4ccccc4)OCOC3C2)ccc1OCC(C)(C)F (stereo partly shown) [Compound 161] | ≤ 2000 nM |
| Cc1cc(C(=O)N2CC[C@]3(c4cscn4)OCOC3C2)ccc1OCCOC(F)(F)F (stereo partly shown) [Compound 142] | ≤ 2000 nM |
| COc1cc(C(=O)N2CC[C@]3(c4ccccc4)OCOC3C2)ccc1C(C)(C)CO (stereo partly shown) [Compound 91] | ≤ 2000 nM |
| [2H]C1([2H])O[C@@H]2CN(C(=O)c3ccc(OC(C)C(F)(F)F)c(OC)c3)CC[C@]2(c2cccc(F)c2)O1 (stereo partly shown) [Compound 307] | ≤ 2000 nM |
| COc1cc(C(=O)N2CC[C@@]3(c4cccc(F)c4)OCOC3C2)ccc1OCCOC(F)(F)F (stereo partly shown) [Compound 214] | ≤ 2000 nM |
| COc1cc(C(=O)N2CC[C@]3(c4cccc(C(F)(F)F)n4)OCOC3C2)ccc1OCCOC(F)(F)F (stereo partly shown) [Compound 169] | ≤ 2000 nM |
| Cc1cc(C(=O)N2CC[C@@]3(c4ccccc4)OCOC3C2)ccc1OC(C)C (stereo partly shown) [Compound 81] | 2000 to 5000 nM |
| COc1cc(C(=O)N2CC[C@]3(c4ccccc4)OCOC3C2)ccc1OCCC(F)(F)F (stereo partly shown) [Compound 102] | ≤ 2000 nM |
| COc1cc(C(=O)N2CCC3(c4ccccc4)CC3C2)ccc1COCCC(F)(F)F (stereo not shown) [Compound 136] | ≤ 2000 nM |
| COc1cc(C(=O)N2CC[C@]3(c4cc(C(F)(F)F)ccn4)OCOC3C2)ccc1OCCC(F)(F)F (stereo partly shown) [Compound 251] | ≤ 2000 nM |
| CC(F)(F)COc1ccc(C(=O)N2CC[C@]3(c4ccccn4)OCOC3C2)cc1C(F)(F)F (stereo partly shown) [Compound 313] | 2000 to 5000 nM |
| Cc1cc(C(=O)N2CC[C@]3(c4ccccc4)OCOC3C2)ccc1C(C)(C)O (stereo partly shown) [Compound 45] | ≤ 2000 nM |
| COc1nc(C(=O)N2CC[C@]3(c4cccc(F)c4)OCOC3C2)ccc1OCCC1CC(F)(F)C1 (stereo partly shown) [Compound 200] | ≤ 2000 nM |
| COc1cc(C(=O)N2CC[C@]3(c4ccccn4)OCO[C@@H]3C2)ccc1OC(C)C(F)(F)F (stereo partly shown) [Compound 72] | ≤ 2000 nM |
| COc1cccnc1[C@]12CCN(C(=O)c3ccc(OCCOC(F)(F)F)c(C)c3)CC1OCO2 (stereo partly shown) [Compound 89] | ≤ 2000 nM |
| O=C(c1ccc(OCCOC(F)(F)F)c(Cl)c1)N1CC[C@]2(c3cc(C(F)(F)F)ccn3)OCOC2C1 (stereo partly shown) [Compound 248] | ≤ 2000 nM |
| COc1cccc([C@]23CCN(C(=O)c4ccc(OCCOC(F)(F)F)c(OC)c4)CC2OCO3)n1 (stereo partly shown) [Compound 192] | ≤ 2000 nM |
| COc1nc(C(=O)N2CC[C@]3(c4cccc(F)c4)OCOC3C2)ccc1OCC1CC2C(C1)C2(F)F (stereo partly shown) [Compound 236] | ≤ 2000 nM |
| Cc1cc(C(=O)N2CC[C@@]3(c4ccccn4)COC3C2)ccc1OCCOC(F)(F)F (stereo partly shown) [Compound 206] | ≤ 2000 nM |
| COc1cc(C(=O)N2CCC3(c4ccccc4)CC3C2)ccc1OCC1CCCO1 (stereo not shown) [Compound 65] | ≤ 2000 nM |
| COc1cc(C(=O)N2CC[C@]3(c4ccccn4)OCOC3C2)ccc1OCC(C)(C)F (stereo partly shown) [Compound 23] | 2000 to 5000 nM |
| CC(C)(F)COc1ccc(C(=O)N2CC[C@@]3(c4cccc(F)c4)OCOC3C2)cc1C(F)(F)F (stereo partly shown) [Compound 219] | > 5000 nM |
| COc1nc(C(=O)N2CC[C@]3(c4cccc(F)c4F)OCOC3C2)ccc1OCC1CC(F)(F)C1 (stereo partly shown) [Compound 281] | ≤ 2000 nM |
| COc1cc(C(=O)N2CC[C@]3(c4ccccc4)OCCOC3C2)ccc1OCCOC(F)(F)F (stereo partly shown) [Compound 132] | ≤ 2000 nM |
| COc1cc(C(=O)N2CC[C@]3(c4ccccn4)CC3C2)ccc1OCCOC(F)(F)F (stereo partly shown) [Compound 101] | ≤ 2000 nM |

| SMILES | IC50 |
| --- | --- |
| COc1cc(C(=O)N2CC[C@@]3(c4ccc(F)cc4)OCOC3C2)ccc1OCC(C)(C)F (stereo partly shown) [Compound 47] | ≤ 2000 nM |
| COc1cc(C(=O)N2CCC3(c4ccccc4)CC3C2)ccc1C(C)(C)O (stereo not shown) [Compound 147] | ≤ 2000 nM |
| Cc1cc(C(=O)N2CC[C@]3(c4ccccn4)OCOC3C2)ccc1OCC(C)(C)O (stereo partly shown) [Compound 25] | 2000 to 5000 nM |
| COc1ccnc([C@]23CCN(C(=O)c4ccc(OCC5CC(F)(F)C5)c(OC)c4)CC2OCO3)c1 (stereo partly shown) [Compound 203] | ≤ 2000 nM |
| COc1nc(C(=O)N2CCC3(c4ccccc4)CC3C2)ccc1OCC(C)(C)O (stereo not shown) [Compound 60] | ≤ 2000 nM |
| COc1nc(C(=O)N2CC[C@]3(c4cc(C(F)(F)F)ccn4)OCOC3C2)ccc1OCCOC(F)(F)F (stereo partly shown) [Compound 153] | ≤ 2000 nM |
| COc1cc(C(=O)N2CC[C@]3(c4ncccc4F)OCOC3C2)ccc1OCCOC(F)(F)F (stereo partly shown) [Compound 93] | ≤ 2000 nM |
| O=C(c1ccc(OCCC(F)(F)F)c(C(F)(F)F)c1)N1CC[C@@]2(c3cccc(F)c3)OCOC2C1 (stereo partly shown) [Compound 218] | ≤ 2000 nM |
| [2H]C1([2H])OC2CN(C(=O)c3ccc(OCC4CC(F)(F)C4)c(OC)n3)CC[C@]2(c2cc(F)cc(F)c2)O1 (stereo partly shown) [Compound 280] | ≤ 2000 nM |
| COc1nc(C(=O)N2CC[C@]3(c4cccc(F)c4)OCOC3C2)ccc1OCC(F)(F)C(F)F (stereo partly shown) [Compound 185] | ≤ 2000 nM |
| COc1cc(C(=O)N2CCC3(c4ccccn4)C(C2)C3(F)F)ccc1OCC1CC(F)(F)C1 (stereo not shown) [Compound 259] | ≤ 2000 nM |
| O=C(c1ccc(OCCOC(F)(F)F)c(F)c1)N1CC[C@]2(c3nccs3)OCOC2C1 (stereo partly shown) [Compound 62] | 2000 to 5000 nM |
| COc1cc(C(=O)N2CC[C@]3(c4ncccc4OC)OCOC3C2)ccc1OCCOC(F)(F)F (stereo partly shown) [Compound 41] | ≤ 2000 nM |
| COc1cc(C(=O)N2CCC3(c4ccccn4)CC3C2)ccc1OCCOC(F)(F)F (stereo not shown) [Compound 285] | ≤ 2000 nM |
| COc1cc(C(=O)N2CC[C@]3(c4cccc(Br)n4)OCOC3C2)ccc1OCCOC(F)(F)F (stereo partly shown) [Compound 141] | ≤ 2000 nM |
| COc1nc(C(=O)N2CC[C@]3(c4cccc(Cl)c4)OCOC3C2)ccc1OCC1(C(F)(F)F)CC1 (stereo partly shown) [Compound 270] | ≤ 2000 nM |
| [2H]C1([2H])OC2CN(C(=O)c3ccc(OCC4(C(F)(F)F)CC4)c(OC)n3)CC[C@]2(c2cc(F)cc(F)c2)O1 (stereo partly shown) [Compound 269] | ≤ 2000 nM |
| COc1cc(OC(C)C)ccc1C(=O)N1CCC2(c3ccccc3)CC2C1 (stereo not shown) [Compound 98] | ≤ 2000 nM |
| Cc1cc(C(=O)N2CC[C@@]3(c4nccs4)OCOC3C2)ccc1OCC(C)(C)O (stereo partly shown) [Compound 30] | ≤ 2000 nM |
| O=C(c1ccc(OCCOC(F)(F)F)c(Cl)c1)N1CCC2(c3ccccn3)CC2C1 (stereo not shown) [Compound 238] | ≤ 2000 nM |
| Cc1cc(C(=O)N2CC[C@]3(c4ccc(F)cc4)OCOC3C2)ccc1OCC(C)(C)O (stereo partly shown) [Compound 53] | ≤ 2000 nM |
| COc1cc(C(=O)N2CC[C@]3(c4cccc(F)c4F)OCOC3C2)ccc1OCCC(F)(F)F (stereo partly shown) [Compound 282] | ≤ 2000 nM |
| O=C(c1ccc(OCCOC(F)(F)F)c(F)c1)N1CC[C@@]2(c3cccc(F)c3)OCOC2C1 (stereo partly shown) [Compound 220] | 2000 to 5000 nM |
| CC(Oc1ccc(C(=O)N2CC[C@]3(c4ccccn4)OCOC3C2)cc1Cl)C(F)(F)F (stereo partly shown) [Compound 156] | ≤ 2000 nM |
| COc1cc(C(=O)N2CC[C@]3(c4cc(C(F)(F)F)ccn4)OCOC3C2)ccc1OCC1CC(F)(F)C1 (stereo partly shown) [Compound 226] | ≤ 2000 nM |
| COc1cc(C(=O)N2CC[C@]3(c4cc(C(F)(F)F)ccn4)OCOC3C2)ccc1OCCC1CC1(F)F (stereo partly shown) [Compound 222] | ≤ 2000 nM |
